Results taken from paper PMC5652693, “Coupling to a cancer-selective heparan-sulfate-targeted branched peptide can by-pass breast cancer cell resistance to methotrexate” (Oncotarget, 2017).
Entries after “also recorded” stand apart in the source; their conditions may differ.

Tests used:
[1] = system: NT4 binding to MCF-7 cells; assay: Inhibition of NT4 binding by heparin or heparin binding proteins (flow cytometry), MCF-7; format: cell-based, human; conditions: 250 nM biotinylated NT4; heparin 20, 10 and 1 μg/ml or 1 μM Midkine or Apolipoprotein E4; 30 min, room temperature; Streptavidin-FITC
Procedure: (§1) All experiments were performed using 2 × 10^5 MCF-7 or MDA-MB 231 cells in 96 well U-bottom plates. All dilutions were performed in PBS, containing 5 mM EDTA and 0.5% BSA. 10,000 events were evaluated in a BD FACS Canto II or a BD FACS Calibur (Becton Dickinson, NJ USA). The results were analyzed by FCS Express 6 Flow cytometry software.
(§2) Inhibition of NT4 binding by heparin was carried out incubating cells with 250 nM biotinylated NT4 and various concentrations (20 μg/ml, 10 μg/ml and 1 μg/ml) of heparin for 30 min at room temperature. Inhibition of NT4 binding by heparin binding proteins was carried out incubating cells with 250 nM biotinylated NT4 and 1 μM Midkine or Apolipoprotein E4 for 30 min at room temperature. Cells were finally incubated with 1 μg/ml Streptavidin-FITC.

[2] = system: NT4 binding to MDA-MB 231 cells; assay: Inhibition of NT4 binding by heparin or heparin binding proteins (flow cytometry), MDA-MB 231; format: cell-based, human; conditions: 250 nM biotinylated NT4; heparin 20, 10 and 1 μg/ml or 1 μM Midkine or Apolipoprotein E4; 30 min, room temperature; Streptavidin-FITC
Procedure: as §1, §2

[3] = system: orthotopic model of breast cancer; parameters: method as in PMID 26626158; conditions: orthotopic model of breast cancer in mice, identical experimental conditions for conjugate and free drug; cited from earlier work
Description: In previous studies we investigated the cancer selectivity of tetra-branched peptides containing the sequence of human neurotensin, which we named NT4. We developed theranostic molecules for tumor imaging or therapy by coupling NT4 to different functional units or liposomes.

[4] = system: MCF-7 human breast adenocarcinoma cells; assay: Cytotoxicity (MTT growth inhibition) in MTX-sensitive MCF-7 cells; format: cell-based; conditions: MCF7, MCF-7, 5 × 10^3 cells per well, 6 days at 37°C, twice in triplicate (Figure 6: mean of six experiments ± SD)
Procedure: (§3) MCF-7 human breast adenocarcinoma, MDA-MB 231 human breast adenocarcinoma, T-24 human bladder carcinoma, PANC-1 human pancreatic carcinoma, HT29 human colon adenocarcinoma, A375 human melanoma, HT-1376 human bladder carcinoma and OVCAR-3 human ovarian carcinoma cells were grown in their recommended media supplemented with 10% fetal calf serum, 200 μg/ml glutamine, 100 μg/ml streptomycin, 60 μg/ml penicillin, and maintained at 37°C, 5% CO2. MDA-MB 231 was maintained at 37°C without CO2. Cell lines were purchased from ATCC.
(§4) MCF-7 and MDA-MB 231 cells were plated at a density of 5 × 10^3 per well in 96-well microplates. […] Cell growth was analyzed after 6 days of incubation at 37°C. Growth inhibition was assessed by 3-(4,5-dimethylthiazol-2-yl)-2,5-diphenyltetrazolium bromide (MTT). Cytotoxicity of drug-conjugated NT4 was compared with that of the corresponding free drugs. The experiment was performed twice in triplicate. EC50 values were calculated by non-linear regression analysis using Graph Pad Prism 5.03 software.

[5] = system: MDA-MB 231 human breast adenocarcinoma cells; assay: Cytotoxicity (MTT growth inhibition) in MTX-resistant MDA-MB 231 cells; format: cell-based; conditions: MDA-MB 231, 5 × 10^3 cells per well, 6 days at 37°C, twice in triplicate (Figure 6: mean of six experiments ± SD)
Procedure: as §3, §4

[6] = system: T-24 human bladder carcinoma cells; assay: MTX cytotoxicity screening, T-24; format: cell-based
Procedure: as §3
as §4, with “software. Values from untreated controls gave 100% cell viability.” for “software.”

[7] = system: PANC-1 human pancreatic carcinoma cells; assay: MTX cytotoxicity screening, PANC-1; format: cell-based
Procedure: as §3
as §4, with “software. Values from untreated controls gave 100% cell viability.” for “software.”

[8] = system: HT29 human colon adenocarcinoma cells; assay: MTX cytotoxicity screening, HT29; format: cell-based; conditions: HT-29
Procedure: as §3
as §4, with “software. Values from untreated controls gave 100% cell viability.” for “software.”

[9] = system: A375 human melanoma cells; assay: MTX cytotoxicity screening, A375; format: cell-based; conditions: A-375
Procedure: as §3
as §4, with “software. Values from untreated controls gave 100% cell viability.” for “software.”

[10] = system: HT-1376 human bladder carcinoma cells; assay: MTX cytotoxicity screening, HT-1376; format: cell-based
Procedure: as §3
as §4, with “software. Values from untreated controls gave 100% cell viability.” for “software.”

[11] = system: OVCAR-3 human ovarian carcinoma cells; assay: MTX cytotoxicity screening, OVCAR-3; format: cell-based
Procedure: as §3
as §4, with “software. Values from untreated controls gave 100% cell viability.” for “software.”

[12] = system: MCF-7 cells; assay: Cytotoxicity with and without heparin, MCF-7; format: cell-based, human; conditions: MCF-7, 610 pM to 10 μM compound in the presence of 1 μM heparin, 6 days at 37°C, MTT
Procedure: as §4

[13] = system: MDA-MB 231 cells; assay: Cytotoxicity with and without heparin, MDA-MB 231; format: cell-based, human; conditions: MDA-MB 231, 610 pM to 10 μM compound in the presence of 1 μM heparin, 6 days at 37°C, MTT
Procedure: as §4

[14] = system: MCF-7 and MDA-MB 231 cells; assay: Transporter-mediated efflux of Rho 123 by flow cytometry; format: cell-based, human; conditions: 1 μM Rho 123 for 10 minutes, washed, fluorescence monitored 0-120 minutes by flow cytometry
Procedure: as §1
To analyze active cell drug export mechanisms, MCF-7 and MDA-MB 231 cells were exposed to 1 μM Rho 123 for 10 minutes, then washed twice with PBS-5 mM EDTA-[…] to remove excess of Rho 123, and fluorescence was monitored immediately (T0) and after 10, 20, 30, 45, 60, 90 and 120 minutes. Each step was followed by three washes in PBS-5 mM EDTA-0.5% BSA. P values were calculated using two-tailed Student's t-test (99% confidence interval) using Graph Pad Prism 5.03 software.

With heparin the “inhibition of NT4 binding to MCF-7 cells” value [1] was “inhibited; also recorded: abolished” and the “inhibition of NT4 binding to MDA-MB 231 cells” value [2] was “inhibited; also recorded: abolished”.

For “Apolipoprotein E4: heparin binding protein”, the “inhibition of NT4 binding to MCF-7 cells” value [1] was “inhibited” and the “inhibition of NT4 binding to MDA-MB 231 cells” value [2] was “inhibited”.

In the case of `CC(=O)O[C@H]1C(=O)[C@@]2(C)[C@H]([C@H](OC(=O)c3ccccc3)[C@]3(O)C[C@H](OC(=O)[C@H](O)[C@@H](NC(=O)c4ccccc4)c4ccccc4)C(C)=C1C3(C)C)[C@]1(OC(C)=O)CO[C@@H]1C[C@@H]2O` [paclitaxel], the tumor regression [3] is listed as “not achieved”.

Molecule `CN(Cc1cnc2nc(N)nc(N)c2n1)c1ccc(C(=O)N[C@@H](CCC(=O)O)C(=O)O)cc1` [MTX, methotrexate] has an EC50 [4] of 25.8 nM, an EC50 [5] of 506 nM and an EC50 [6] of 80.7 nM. It also gave an EC50 [7] of 23.4 nM, an EC50 [8] of 60.9 nM and an EC50 [9] of 33.7 nM. The EC50 [10] was 171 nM, the EC50 [11] was 89.5 nM and the “effect of heparin on cytotoxicity” value [12] was “did not affect”. The “effect of heparin on cytotoxicity” value [13] was “did not affect”.

With `COC(=O)c1ccccc1-c1c2ccc(=N)cc-2oc2cc(N)ccc12` [Rho 123, Rhodamine 123] the “drug efflux (Rho 123 signal decrease) compared between cell lines” value [14] was “comparable in the two cell lines”.

B1: Midkine: heparin binding protein (protein, UniProt P21741 21-143, looked up)
Midkine: VAKKKDKVKKGGPGSECAEWAWGPCTPSSKDCGVGFREGTCGAQTQRIRCRVPCNWKKEFGADCKYKFENWGACDGGTGTKVRQGTLKKARYNAQCQETIRVTKPCTPKTKAKAKAKKGKGKD
In the case of B1, the “inhibition of NT4 binding to MCF-7 cells” value [1] is reported as “inhibited” and the “inhibition of NT4 binding to MDA-MB 231 cells” value [2] is reported as “inhibited”.
